Measured values from patent US6395785B1 (Orion Corporation, priority 1998, dated 2002).
Where two headings read alike, the source gives them in different places.

Experiments:
[1] = system: uterine weight in ovarectomized adult female Sprague-Dawley rats; experiment: Uterine weight in ovarectomized adult female rats; assay type: in vivo; settings: for Relative uterine weight (control level taken as 1.00): ovarectomized rats
Protocol: (§2) The effects on uterine weight and on serum cholesterol levels were studied in intact and ovarectomized adult female Sprague-Dawley rats. […] In the ovarectomy study the study drug was given p.o. at a daily dose of 0.1, 1 or 10 mg/kg for 4 weeks and comparison was made with the corresponding Z-isomer and estradiol (100 μg/kg). The serum cholesterol content was determined by an enzymatic method. In the ovarectomy study the serum cholesterol and cholesterol precursor molecule content was determined by gas-liquid chromatography.

[2] = system: uterine weight in intact adult female Sprague-Dawley rats; experiment: Uterine weight in intact adult female rats; settings: p.o. 3.17 mg/kg daily or equimolar dose, two weeks
Protocol: as §2

[3] = system: serum cholesterol; experiment: Serum cholesterol in intact adult female rats; settings: for Serum cholesterol content (control level taken as 1.00; mean ± SD, n = 3): intact rats, p.o. 3.17 mg/kg daily or equimolar dose, two weeks
Protocol: as §2

[4] = system: estrogen-induced increase in uterine weight
Protocol: (§1) The estrogenic/antiestrogenic activity of the study drug was tested by measuring the effect on the uterine weight in immature (18 days old) female Sprague-Dawley rats. The compound was given p.o. in a PEG-solution for 3 days (n=5/group). At the same time the ability of the study drug to inhibit estrogen-induced increase in uterine weight was studied in rats given estradiol 50 μg/kg s.c. Comparison was made with the corresponding Z-isomer.

[5] = system: uterine weight in immature female Sprague-Dawley rats; settings: for Average uterine weight (weight after mere E2-treatment was taken as 1.00): drug alone
Protocol: as §1

[6] = system: Hep G2 cell cultures; settings: for Cholesterol biosynthesis level (% of control): 2 hours, Hep G2; for Effect on cholesterol biosynthesis (in words): in vitro cell culture system, 0.01 to 10 micromolar
Protocol: The effects on cholesterol biosynthesis was studied in vitro in Hep G2 cell cultures using ^14C-acetate as cholesterol precursor. The test compound was added into the culture medium at concentrations from 0.01 to 10 micromolar. After 2 hours the culture was stopped and the newly synthesized cholesterol was quantitated by thin-layer chromatography. Comparison was made with the Z-isomer.

[7] = system: serum cholesterol; settings: for Serum cholesterol content (control level taken as 1.00): ovarectomized rats; for Decrease of serum cholesterol level (maximum): ovarectomy study, over the doses tested
Protocol: as §2

[8] = system: serum cholesterol precursor molecule; settings: ovarectomy study
Protocol: as §2

[9] = 0.1 mg/kg p.o. for 3 days + E2 (estradiol 50 μg/kg s.c.)
[10] = 0.5 mg/kg p.o. for 3 days + E2 (estradiol 50 μg/kg s.c.)
[11] = 1 mg/kg p.o. for 3 days + E2 (estradiol 50 μg/kg s.c.)
[12] = 10 mg/kg p.o. for 3 days + E2 (estradiol 50 μg/kg s.c.)

Structure (SMILES)	Relative uterine weight (control level taken as 1.00; mean ± SD, n = 3) [2]	Serum cholesterol content (control level taken as 1.00; mean ± SD, n = 3) [3]	Average uterine weight (weight after mere E2-treatment was taken as 1.00) [4, 9]	Average uterine weight (weight after mere E2-treatment was taken as 1.00) [4, 10]	Average uterine weight (weight after mere E2-treatment was taken as 1.00) [4, 11]	Average uterine weight (weight after mere E2-treatment was taken as 1.00) [4, 12]	Average uterine weight (weight after mere E2-treatment was taken as 1.00) ([5]; 0.1 mg/kg p.o. for 3 days)	Average uterine weight (weight after mere E2-treatment was taken as 1.00) ([5]; 0.5 mg/kg p.o. for 3 days)	Average uterine weight (weight after mere E2-treatment was taken as 1.00) ([5]; 1 mg/kg p.o. for 3 days)	Average uterine weight (weight after mere E2-treatment was taken as 1.00) ([5]; 10 mg/kg p.o. for 3 days)	Cholesterol biosynthesis level (% of control) ([6]; 0.01 μM)	Cholesterol biosynthesis level (% of control) ([6]; 0.1 μM)	Cholesterol biosynthesis level (% of control) ([6]; 1 μM)	Cholesterol biosynthesis level (% of control) ([6]; 10 μM)	Effect on cholesterol biosynthesis (in words) [6]	Relative uterine weight (control level taken as 1.00) ([1]; 0.1 mg/kg p.o. daily, 4 weeks)	Relative uterine weight (control level taken as 1.00) ([1]; 1 mg/kg p.o. daily, 4 weeks)	Relative uterine weight (control level taken as 1.00) ([1]; 10 mg/kg p.o. daily, 4 weeks)	Serum cholesterol content (control level taken as 1.00) ([7]; 1 mg/kg p.o. daily, 4 weeks)	Serum cholesterol content (control level taken as 1.00) ([7]; 10 mg/kg p.o. daily, 4 weeks)	other results
C[C@]12CC[C@@H]3c4ccc(O)cc4CC[C@H]3[C@@H]1CC[C@@H]2O [Estradiol]	1.29 ± 0.06	0.48 ± 0.09	–	–	–	–	–	–	–	–	–	–	–	–	–	–	–	–	–	–	Increase of relative uterus weight ([1]; ovarectomy study, estradiol 100 μg/kg): 3.3 fold
O=C(c1ccc(OCCN2CCCCC2)cc1)c1c(-c2ccc(O)cc2)sc2cc(O)ccc12 [Raloxifene]	0.77 ± 0.21	0.48 ± 0.09	–	–	–	–	–	–	–	–	–	–	–	–	–	–	–	–	–	–	–
OCCOc1ccc(/C(=C(\CCCl)c2ccccc2)c2ccccc2)cc1 [1271b (E), E-2-[4-(4-chloro-1,2-diphenyl-but-1-enyl)phenoxy]ethanol]	0.85 ± 0.07	0.43 ± 0.05	0.81	0.82	0.57	0.83	0.37	0.45	0.44	0.75	89 % of control	90 % of control	89 % of control	84 % of control	inhibited slightly cholesterol biosynthesis	1.54	1.50	1.53	0.62	0.23	Estrogenic and antiestrogenic effect compared to the corresponding Z-isomer (in words) ([5]; immature rat uterine weight test): approximately equal estrogenic and antiestrogenic effect; Increase of relative uterus weight ([1]; ovarectomy study, 0.1, 1 or 10 mg/kg p.o., 4 weeks): 1.5 fold; Serum cholesterol content (control level taken as 1.00) ([7]; 0.1 mg/kg p.o. daily, 4 weeks): 0.92; Decrease of serum cholesterol level (maximum) [7]: up to 77%; Effect on serum cholesterol precursor molecule level (in words) [8]: increased slightly
CN(C)CCOc1ccc(/C(=C(/CCCl)c2ccccc2)c2ccccc2)cc1 [Toremifene (E)]	1.09 ± 0.10	0.40 ± 0.18	–	–	–	–	–	–	–	–	–	–	–	–	–	–	–	–	–	–	–
OCCOc1ccc(/C(=C(/CCCl)c2ccccc2)c2ccccc2)cc1 [1271a (Z), Z-2-[4-(4-chloro-1,2-diphenyl-but-1-enyl)phenoxy]ethanol]	0.75 ± 0.06	0.65 ± 0.10	1.18	1.11	0.91	0.91	0.27	0.43	0.53	0.75	143 % of control	127 % of control	129 % of control	132 % of control	had an opposite effect	1.22	1.78	2.04	0.96	0.66	Serum cholesterol content (control level taken as 1.00) ([7]; 0.5 mg/kg): 0.90; Serum cholesterol content (control level taken as 1.00) ([7]; 5 mg/kg): 0.89; Decrease of serum cholesterol level (maximum) [7]: up to 34%; Effect on serum cholesterol precursor molecule level (in words) [8]: not; Efficacy in decreasing serum cholesterol level (in words) ([3]; intact adult female rats, compared with the other drugs): less effective
